Laboratory results taken from US20100292205A1, “Pyrimidone Compounds As GSK-3 Inhibitors” (PFIZER INC., priority 2006, published 2010).

What follows are molecules tested against T1, Recombinant human GSK3β (Homo sapiens, UniProt P49841) (assay: GSK-3β (Glycogen Synthase Kinase) cell free enzyme assay). Conditions: 1 μM; Examples 201-221.
T1 construct: His-tag; made in house; host or cells: Sf9 insect cells / baculovirus
Format: biochemical
Method in brief: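 This cell-free kinase assay measured [33P] transfer from [33P]ATP gamma phosphate into the biotinylated peptide bio-LC-S-R-H-S-S-P-H-Q-pS-E-D-E-E-E-OH. After 60 min at RT, reactions were stopped with 0.66 volume of PBS lacking Ca or Mg containing 12.5 mM EDTA, 0.25% Triton-X 100, 125 uM ATP and 6.2 mg/ml streptavidin SPA beads. Bead-bound radioactivity was counted as CPM on a Trilux scintillation counter.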

T1 sequence (P49841 whole entry): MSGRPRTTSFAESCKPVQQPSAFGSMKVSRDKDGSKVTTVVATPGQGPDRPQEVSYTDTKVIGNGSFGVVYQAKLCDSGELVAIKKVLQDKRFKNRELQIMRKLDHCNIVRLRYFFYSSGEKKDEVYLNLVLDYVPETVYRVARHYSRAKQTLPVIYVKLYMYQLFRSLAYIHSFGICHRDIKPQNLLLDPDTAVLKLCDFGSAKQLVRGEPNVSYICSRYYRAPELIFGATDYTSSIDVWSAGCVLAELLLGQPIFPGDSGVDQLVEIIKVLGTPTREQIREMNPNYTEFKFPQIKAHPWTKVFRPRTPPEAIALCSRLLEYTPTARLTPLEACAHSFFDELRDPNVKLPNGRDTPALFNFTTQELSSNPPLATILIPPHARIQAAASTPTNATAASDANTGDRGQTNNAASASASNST

Percent inhibition at 1 μM [%]	Molecule
89	Methyl (1R,5S)-3-(1-methyl- 6-oxo-4-pyridin-4-yl-16- dihydropyrimidin-2-yl)-38- diazabicyclo[3.2.1]octane-8- carboxylate [Example 201]

Same assay, conditions: cell free enzyme assay; Examples 265-291

IC50 [nM]	Molecule
126	CN(c1nc(-c2ccncc2F)cc(=O)n1C)[C@H]1[C@@H]2CN(c3nc(C(F)(F)F)c(C(=O)OCc4ccccc4)s3)C[C@@H]21 [Example 268, Benzyl 2-[(1R,5S,6s)-6-{[4-(3-fluoropyridin-4-yl)-1-methyl-6-oxo-1,6-dihydropyrimidin-2-yl](methyl)amino}-3-azabicyclo[3.1.0]hex-3-yl]-4-(trifluoromethyl)-1,3-thiazole-5-carboxylate]
18.8	CN(c1nc(-c2ccncc2F)cc(=O)n1C)[C@H]1[C@@H]2CN(c3nc4ccc(F)cc4n3C)C[C@@H]21 [Example 269, 2-{[(1R,5S,6s)-3-(6-Fluoro-1-methyl-1H-benzimidazol-2-yl)-3-azabicyclo[3.1.0]hex-6-yl](methyl)amino}-6-(3-fluoropyridin-4-yl)-3-methylpyrimidin-4(3H)-one]
24.6	CN(c1nc(-c2ccncc2F)cc(=O)n1C)[C@H]1[C@@H]2CN(c3nc4ccccc4o3)C[C@@H]21 [Example 270, 2-{[(1R,5S,6s)-3-[1,3-Benzoxazol-2-yl)-3-azabicyclo[3.1.0]hex-6-yl](methyl)amino}-6-(3-fluoropyridin-4-yl)-3-methylpyrimidin-4(3H)-one]
8.8	CN(c1nc(-c2ccncc2F)cc(=O)n1C)[C@H]1[C@@H]2CN(c3nnnn3Cc3ccc(C#N)cc3)C[C@@H]21 [Example 271, 4-({5-[(1R,5S,6s)-6-{[4-(3-Fluoropyridin-4-yl)-1-methyl-6-oxo-1,6-dihydropyrimidin-2-yl](methyl)amino}-3-azabicyclo[3.1.0]hex-3-yl]-1H-tetrazol-1-yl}methyl)benzonitrile]
76.1	CN(c1nc(-c2ccncc2F)cc(=O)n1C)[C@H]1[C@@H]2CN(c3nc4ccccc4[nH]3)C[C@@H]21 [Example 272, 2-{[(1R,5S,6s)-3-(1H-Benzimidazol-2-yl)-3-azabicyclo[3.1.0]hex-6-yl](methyl)amino}-6-(3-fluoropyridin-4-yl)-3-methylpyrimidin-4(3H)-one]
29	CCOCCn1nnnc1N1C[C@@H]2[C@H](C1)[C@H]2N(C)c1nc(-c2ccncc2F)cc(=O)n1C [Example 273, 2-[{(1R,5S,6s)-3-[1-(2-Ethoxyethyl)-1H-tetrazol-5-yl]-3-azabicyclo[3.1.0]hex-6-yl}(methyl)amino]-6-(3-fluoropyridin-4-yl)-3-methylpyrimidin-4(3H)-one]
234	Cc1nnc2c(N3C[C@@H]4[C@H](C3)[C@H]4N(C)c3nc(-c4ccncc4F)cc(=O)n3C)nc(-c3ccccc3)cn12 [Example 274, 6-(3-Fluoropyridin-4-yl)-3-methyl-2-{methyl[(1R,5S,6s)-3-(3-methyl-6-phenyl[1,2,4]triazolo[4,3-a]pyrazin-8-yl)-3-azabicyclo[3.1.0]hex-6-yl]amino}pyrimidin-4(3H)-one]
1.12	CN(c1nc(-c2ccncc2F)cc(=O)n1C)[C@H]1[C@@H]2CN(c3nnnn3-c3ccccc3F)C[C@@H]21 [Example 275, 2-[{(1R,5S,6s)-3-[1-(2-Fluorophenyl)-1H-tetrazol-5-yl]-3-azabicyclo[3.1.0]hex-6-yl}(methyl)amino]-6-(3-fluoropyridin-4-yl)-3-methylpyrimidin-4(3H)-one]
6.21	CCOC(=O)c1cccc(-n2nnnc2N2C[C@@H]3[C@H](C2)[C@H]3N(C)c2nc(-c3ccncc3F)cc(=O)n2C)c1 [Example 276, Ethyl 3-{5-[(1R,5S,6s)-6-{[4-(3-fluoropyridin-4-yl)-1-methyl-6-oxo-1,6-dihydropyrimidin-2-yl](methyl)amino}-3-azabicyclo[3.1.0]hex-3-yl]-1H-tetrazol-1-yl}benzoate]
51.7	Cc1nn(C2CCCC2)c2nc(N3C[C@@H]4[C@H](C3)[C@H]4N(C)c3nc(-c4ccncc4F)cc(=O)n3C)[nH]c(=O)c12 [Example 277, 1-Cyclopentyl-6-[(1R,5S,6s)-6-{[4-(3-fluoropyridin-4-yl)-1-methyl-6-oxo-1,6-dihydropyrimidin-2-yl](methyl)amino}-3-azabicyclo[3.1.0]hex-3-yl]-3-methyl-1,5-dihydro-4H-pyrazolo[3,4-d]pyrimidin-4-one]
109	CC(C)Cc1nn(C)c2c(=O)[nH]c(N3C[C@@H]4[C@H](C3)[C@H]4N(C)c3nc(-c4ccncc4F)cc(=O)n3C)nc12 [Example 278, 5-[(1R,5S,6s)-6-{[4-(3-Fluoropyridin-4-yl)-1-methyl-6-oxo-1,6-dihydropyrimidin-2-yl](methyl)amino}-3-azabicyclo[3.1.0]hex-3-yl]-3-isobutyl-1-methyl-1,6-dihydro-7H-pyrazolo[4,3-d]pyrimidin-7-one]
58.6	CN(c1nc(-c2ccncc2F)cc(=O)n1C)[C@H]1[C@@H]2CN(c3nnnn3C)C[C@@H]21 [Example 279, 6-(3-Fluoropyridin-4-yl)-3-methyl-2-{methyl[(1R,5S,6s)-3-(1-methyl-1H-tetrazol-5-yl)-3-azabicyclo[3.1.0]hex-6-yl]amino}pyrimidin-4(3H)-one]
4.48	CN(c1nc(-c2ccncc2F)cc(=O)n1C)[C@H]1[C@@H]2CN(c3nnnn3CC3CC3)C[C@@H]21 [Example 280, 2-[{(1R,5S,6s)-3-[1-(Cyclopropylmethyl)-1H-tetrazol-5-yl]-3-azabicyclo[3.1.0]hex-6-yl}(methyl)amino]-6-(3-fluoropyridin-4-yl)-3-methylpyrimidin-4(3H)-one]
36.3	CN(c1nc(-c2ccncc2F)cc(=O)n1C)[C@H]1[C@@H]2CN(c3nc4cc(C(F)(F)F)ccc4[nH]3)C[C@@H]21 [Example 281, 6-(3-Fluoropyridin-4-yl)-3-methyl-2-(methyl{(1R,5S,6s)-3-[5-(trifluoromethyl)-1H-benzimidazol-2-yl]-3-azabicyclo[3.1.0]hex-6-yl}amino)pyrimidin-4(3H)-one]
3.25	CC(C)n1nnnc1N1C[C@@H]2[C@H](C1)[C@H]2N(C)c1nc(-c2ccncc2F)cc(=O)n1C [Example 282, 6-(3-Fluoropyridin-4-yl)-2-{[(1R,5S,6s)-3-(1-isopropyl-1H-tetrazol-5-yl)-3-azabicyclo[3.1.0]hex-6-yl](methyl)amino}-3-methylpyrimidin-4(3H)-one]
55.7	CN(c1nc(-c2ccncc2F)cc(=O)n1C)[C@H]1[C@@H]2CN(c3nc4ccccc4s3)C[C@@H]21 [Example 283, 2-{[(1R,5S,6s)-3-(1,3-Benzothiazol-2-yl)-3-azabicyclo[3.1.0]hex-6-yl](methyl)amino}-6-(3-fluoropyridin-4-yl)-3-methylpyrimidin-4(3H)-one]
12.5	CN(c1nc(-c2ccncc2F)cc(=O)n1C)[C@H]1[C@@H]2CN(c3nnnn3C3CCCC3)C[C@@H]21 [Example 284, 2-{[(1R,5S,6s)-3-(1-Cyclopentyl-1H-tetrazol-5-yl)-3-azabicyclo[3.1.0]hex-6-yl](methyl)amino}-6-(3-fluoropyridin-4-yl)-3-methylpyrimidin-4(3H)-one]
5670	Cc1nc(N2C[C@@H]3[C@H](C2)[C@H]3N(C)c2nc(-c3ccncc3F)cc(=O)n2C)n2nc(-c3ccccc3Cl)c(I)c2n1 [Example 285, 2-[{(1R,5S,6s)-3-[7-(2-Chlorophenyl)-8-iodo-2-methylpyrazolo[1,5-a][1,3,5]triazin-4-yl]-3-azabicyclo[3.1.0]hex-6-yl}(methyl)amino]-6-(3-fluoropyridin-4-yl)-3-methylpyrimidin-4(3H)-one]
3.2	CCOc1cccc(-n2nnnc2N2C[C@@H]3[C@H](C2)[C@H]3N(C)c2nc(-c3ccncc3F)cc(=O)n2C)c1 [Example 286, 2-[{(1R,5S,6s)-3-[1-(3-Ethoxyphenyl)-1H-tetrazol-5-yl]-3-azabicyclo[3.1.0]hex-6-yl}(methyl)amino]-6-(3-fluoropyridin-4-yl)-3-methylpyrimidin-4(3H)-one]
3.06	COCC(C)n1nnnc1N1C[C@@H]2[C@H](C1)[C@H]2N(C)c1nc(-c2ccncc2F)cc(=O)n1C (stereo partly drawn) [Example 287, 6-(3-Fluoropyridin-4-yl)-2-[{(1R,5S,6s)-3-[1-(2-methoxy-1-methylethyl)-1H-tetrazol-5-yl]-3-azabicyclo[3.1.0]hex-6-yl}(methyl)amino]-3-methylpyrimidin-4(3H)-one]
116	CN(c1nc(-c2ccncc2F)cc(=O)n1C)[C@H]1[C@@H]2CN(c3nc4cc(F)ccc4[nH]3)C[C@@H]21 [Example 288, 2-{[(1R,5S,6s)-3-(5-Fluoro-1H-benzimidazol-2-yl)-3-azabicyclo[3.1.0]hex-6-yl](methyl)amino}-6-(3-fluoropyridin-4-yl)-3-methylpyrimidin-4(3H)-one]
25.1	COc1ccc2nc(N3C[C@@H]4[C@H](C3)[C@H]4N(C)c3nc(-c4ccncc4F)cc(=O)n3C)sc2c1 [Example 289, 6-(3-Fluoropyridin-4-yl)-2-{[(1R,5S,6s)-3-(6-methoxy-1,3-benzothiazol-2-yl)-3-azabicyclo[3.1.0]hex-6-yl](methyl)amino}-3-methylpyrimidin-4(3H)-one]
27.7	CN(c1nc(-c2ccncc2F)cc(=O)n1C)[C@H]1[C@@H]2CN(c3nnnn3Cc3cccc(OC(F)(F)F)c3)C[C@@H]21 [Example 290, 6-(3-Fluoropyridin-4-yl)-3-methyl-2-{methyl[(1R,5S,6s)-3-{1-[3-(trifluoromethoxy)benzyl]-1H-tetrazol-5-yl}-3-azabicyclo[3.1.0]hex-6-yl]amino}pyrimidin-4(3H)-one]
5.99	CN(c1nc(-c2ccncc2F)cc(=O)n1C)[C@H]1[C@@H]2CN(c3nnnn3-c3cccc(OC(F)(F)F)c3)C[C@@H]21 [Example 291, 6-(3-Fluoropyridin-4-yl)-3-methyl-2-{methyl[(1R,5S,6s)-3-{1-[3-(trifluoromethoxy)phenyl]-1H-tetrazol-5-yl}-3-azabicyclo[3.1.0]hex-6-yl]amino}pyrimidin-4(3H)-one]
